Measured values: ChEMBL document CHEMBL1131680, “Structure-based design of diaminopyranosides as a novel inhibitor core unit of HIV proteases” (Bioorg Med Chem Lett, 1999)

Biological target: Human immunodeficiency virus type 1 protease (Human immunodeficiency virus 1, UniProt Q72874)
Assay: Inhibitory concentration required to inhibit hydrolytic activity of recombinant HIV-1 PR (human immunodeficiency virus protease)

SMILES	IC50 [µM]
[N-]=[N+]=NC1C(N)C(OCc2ccccc2)OC(CO)C1OCc1ccccc1 (stereo not drawn)	> 1
NC1C(OCc2ccccc2)OC(CO)C(OCc2ccccc2)C1N (stereo not drawn)	205
NC1C(OCc2ccccc2)OC(COC(=O)Nc2ccccc2)C(OCc2ccccc2)C1N (stereo not drawn)	28
